Data published in patent US20110207926A1, “NOVEL DIHYDROTRIAZINE DERIVATIVE” (HAMARI CHEMICALS, LTD., priority 2008, published 2011).
Like-named read-outs stand apart in the source and are kept apart here.

Legend:
[1] = Skin sensitivity test, LLNA-BrdU method (lymph node weight); assay type: in vivo; details: 5 w/v % in acetone/olive oil 4:1, transdermal to auricle once a day for 3 days, mice
Procedure: For application of an external bactericidal/disinfectant agent to the skin, the sensitivity (allergenicity) is desirably as small as possible. […] The sensitivity was evaluated by a Local lymph node assay (LLNA) method using Bromodeoxyuridine (BrdU). In this test, measurement of the amount of BrdU uptaken by the lymph node using an ELISA kit was not performed, and the evaluation was based solely on the weight increase of the lymph node.
8-Week-old female CBA/JN Crlj mice were grouped (3 per group) according to the adequate strafication method based on the body weight (about 20 g) on the first day of administration. A test substance was prepared to 5 w/v % for each test substance by using a mixed solution of acetone and olive oil (v/v=4:1, A00). This was repeatedly administered transdermally to the auricle of the mice at 25 μL/auricle (50 for both auricles) once a day for 3 days. Two days after the final administration, BrdU 10 mg/mL (0.5 mL/mouse) was intraperitoneally administered. Three days after the final transdermal administration (next day of BrdU administration), carbon dioxide was given by inhalation to a comfortable death, and the auricle lymph node was isolated and the weight thereof was measured.

[2] = Water solubility test (Japanese Pharmacopoeia solubility test method); assay type: physicochemical; details: 20±5° C., dissolution in 30 min; for evaluation (water solubility): criteria of Table 9
Procedure: According to the Japanese Pharmacopoeia solubility test method, the compounds of Examples 1 and 7 of the present invention and the corresponding N-methyl unsubstituted compounds were examined for water solubility. To be specific, a test substance was powderized, placed in water and the mixture was vigorously shaken for 30 sec every 5 min at 20±5° C. The solubility was evaluated based on the degree of dissolution in 30 min by reference to the following Table 9.

[3] = system: S. aureus ATCC 6538; test: Bactericidal activity test (MBC measurement); assay type: cell-based, Staphylococcus aureus; details: Staphylococcus aureus, read-out: MBC
Procedure: (§1) Each strain was cultured in Trypticase Soy agar medium for 18 to 20 hr, suspended in 0.1% peptone saline, and prepared to OD 600 nm, 1.0 McFarland. The suspension was further diluted with 0.1% peptone saline to give a test bacteria solution (targeted value; 2×10^7 CFU/mL).
(§2) At 0.5, 1 and 3 min from the start of the reaction, a part of the reaction mixture was sampled and mixed with an equal amount of a neutralizing agent (10% Tween 80, 3% lecithin/aqueous solution) to terminate the bactericidal reaction. The reaction mixture was inoculated to a 96 well microplate dispensed with 180 μL of Tripticase Soy liquid medium in advance, and statically cultured at 37° C. for 20 to 24 hr. Thereafter, the presence or absence of growth was visually evaluated, and the minimum concentration at which growth was not observed was taken as the minimal bactericidal concentration (MBC value) of each action time. The numerical values in the Tables show MBC, the unit is μg/mL, S. aureus means Staphylococcus aureus, MRSA means methicillin-resistant Staphylococcus aureus, E. coli means Escherichia coli, and P. aeruginosa means Pseudomonas aeruginosa.

[4] = system: P. aeruginosa PAO-1; test: Bactericidal activity test (MBC measurement); assay type: cell-based, Pseudomonas aeruginosa; details: Pseudomonas aeruginosa, read-out: MBC
Procedure: as §1, §2

[5] = system: P. aeruginosa ATCC 27853; test: Bactericidal activity test (MBC measurement); assay type: cell-based, Pseudomonas aeruginosa; details: Pseudomonas aeruginosa, read-out: MBC
Procedure: as §1, §2

[6] = system: E. coli ATCC 25922; test: Bactericidal activity test (MBC measurement); assay type: cell-based, Escherichia coli; details: Escherichia coli, read-out: MBC
Procedure: as §1, §2

[7] = system: MRSA ATCC 33591; test: Bactericidal activity test (MBC measurement); assay type: cell-based, methicillin-resistant Staphylococcus aureus; details: Staphylococcus aureus, read-out: MBC
Procedure: as §1, §2

[8] = ATCC6538, 0.5 min, S. aureus ATCC 6538, action time 0.5 min
[9] = PAO1, 0.5 min, P. aeruginosa PAO-1, action time 0.5 min
[10] = ATCC27853, 0.5 min, P. aeruginosa ATCC 27853, action time 0.5 min
[11] = ATCC25922, 0.5 min, E. coli ATCC 25922, action time 0.5 min
[12] = 0.5 min, MRSA ATCC 33591, action time 0.5 min
[13] = ATCC6538, 1 min, S. aureus ATCC 6538, action time 1 min
[14] = ATCC6538, 0.05 h, S. aureus ATCC 6538, action time 3 min
[15] = PAO1, 1 min, P. aeruginosa PAO-1, action time 1 min
[16] = PAO1, 0.05 h, P. aeruginosa PAO-1, action time 3 min
[17] = ATCC27853, 1 min, P. aeruginosa ATCC 27853, action time 1 min
[18] = ATCC27853, 0.05 h, P. aeruginosa ATCC 27853, action time 3 min
[19] = ATCC25922, 1 min, E. coli ATCC 25922, action time 1 min
[20] = ATCC25922, 0.05 h, E. coli ATCC 25922, action time 3 min
[21] = 1 min, MRSA ATCC 33591, action time 1 min
[22] = 0.05 h, MRSA ATCC 33591, action time 3 min

SI value (Stimulation index, lymph node weight ratio to solvent group) [1] | water (mL) to dissolve 1 g [2] | SMILES | evaluation (water solubility) [2] | MBC [3, 8] | MBC [4, 9] | MBC [5, 10] | MBC [6, 11] | MBC [7, 12] | other results
4.4 |  | CCCCCCCCNC1=NC(C)(C)N=C(NCc2ccc(C)cc2)N1 [Ref. Ex. 5, 4-octylamino-1,6-dihydro-6,6-dimethyl-2-(4-methylbenzylamino-1,3,5-triazine gluconate, reference compound] |  |  |  |  |  |  | 
 | 50 mL | CCCCCCCCNC1=NC(C)(C)NC(NCc2ccc(C)cc2)=N1 [Comp. Ex. 2, reference compound] | sparingly soluble (not less than 30 mL less than 100 mL) |  |  |  |  |  | 
4.4 |  | CCCCCCCCNC1=NC(C)(C)NC(Nc2ccccc2)=N1 [Ref. Ex. 4, 1,6-dihydro-6,6-dimethyl-4-octylamino-2-phenylamino-1,3,5-triazine acetate, reference compound] |  |  |  |  |  |  | 
4.6 |  | CCCCCCCCNC1=NC(C)(C)N=C(NCC2CCCCC2)N1 [Ref. Ex. 3, 4-octylamino-2-cyclohexylmethylamino-1,6-dihydro-6,6-dimethyl-1,3,5-triazine acetate, reference compound] |  |  |  |  |  |  | 
 | 110 mL | CCCCCCCCNC1=NC(C)(C)NC(NCc2ccc(Cl)cc2)=N1 [Comp. Ex. 1, reference compound] | slightly soluble (not less than 100 mL less than 1,000 mL) |  |  |  |  |  | 
0.9 |  | CCCCCCCCNC1=NC(C)(C)NC(N(C)Cc2ccccc2)=N1 [Example 5, N^4-octyl-1,6-dihydro-6,6-dimethyl-N^2-benzyl-N^2-methyl-1,3,5-triazine-2,4-diamine acetate] |  | 200 µg/mL | 25 µg/mL | 12.5 µg/mL | 25 µg/mL | 50 µg/mL | 

Further lines, the compound ahead of its results:

SMILES | SI value (Stimulation index, lymph node weight ratio to solvent group) [1] | water (mL) to dissolve 1 g [2] | evaluation (water solubility) [2] | MBC [3, 8] | MBC [4, 9] | MBC [5, 10] | MBC [6, 11] | MBC [7, 12] | other results
CCCCCCCCN(C)C1=NC(C)(C)NC(NCc2ccc(C)cc2)=N1 [Example 7, N^4-octyl-N^4-methyl-1,6-dihydro-6,6-dimethyl-N^2-(4-methylbenzyl)-1,3,5-triazine-2,4-diamine acetate] | 2.6 | 0.9 mL | very soluble (less than 1 mL) |  |  |  |  |  | 
CC(=O)O.CCCCCCCCCNC1=NC(C)(C)NC(N(C)Cc2ccccc2)=N1 [Example 4, 1,6-dihydro-6,6-dimethyl-N^4-nonyl-N^2-benzyl-N^2-methyl-1,3,5-triazine-2,4-diamine acetate] |  |  |  | 100 µg/mL | 25 µg/mL | 25 µg/mL | 12.5 µg/mL | 25 µg/mL | 
CCCCCCCCN(C)C(=N)/N=C(\N)NCc1ccc(Cl)cc1.Cl [Example 27, N^5-octyl-N^5-methyl-N^1-(4-chlorobenzyl)biguanide hydrochloride] | 2.4 |  |  | 50 µg/mL | 12.5 µg/mL | 12.5 µg/mL | 25 µg/mL | 50 µg/mL | MBC [3, 13]: 25 µg/mL; MBC [3, 14]: 25 µg/mL; MBC [4, 15]: 12.5 µg/mL; MBC [4, 16]: 12.5 µg/mL; MBC [5, 17]: 12.5 µg/mL; MBC [5, 18]: 6.25 µg/mL; MBC [6, 19]: 6.25 µg/mL; MBC [6, 20]: 6.25 µg/mL; MBC [7, 21]: 25 µg/mL; MBC [7, 22]: 25 µg/mL
CCCCCCCCN(C)C(=N)NC(=N)NCc1ccc(Cl)c(Cl)c1.Cl [Example 28, N^5-octyl-N^5-methyl-N^1-(3,4-dichlorobenzyl)biguanide hydrochloride] |  |  |  | 25 µg/mL | 12.5 µg/mL | 25 µg/mL | 6.25 µg/mL | 50 µg/mL | MBC [3, 13]: 12.5 µg/mL; MBC [3, 14]: 12.5 µg/mL; MBC [4, 15]: 12.5 µg/mL; MBC [4, 16]: 6.25 µg/mL; MBC [5, 17]: 25 µg/mL; MBC [5, 18]: 12.5 µg/mL; MBC [6, 19]: 6.25 µg/mL; MBC [6, 20]: 6.25 µg/mL; MBC [7, 21]: 12.5 µg/mL; MBC [7, 22]: 12.5 µg/mL
CCCCCCCCN(C)C1=NC(C)(C)NC(NCc2ccc(Cl)cc2)=N1 [Example 1, N^4-octyl-N^4-methyl-1,6-dihydro-6,6-dimethyl-N^2— (4-chlorobenzyl)-1,3,5-triazine-2,4-diamine acetate] |  | <0.5 mL | very soluble (less than 1 mL) | 50 µg/mL | 12.5 µg/mL | 12.5 µg/mL | 12.5 µg/mL | 50 µg/mL | MBC [3, 13]: 12 µg/mL; MBC [3, 14]: 6.25 µg/mL; MBC [4, 15]: 12.5 µg/mL; MBC [4, 16]: 12.5 µg/mL; MBC [5, 17]: 12.5 µg/mL; MBC [5, 18]: 12.5 µg/mL; MBC [6, 19]: 12.5 µg/mL; MBC [6, 20]: 12.5 µg/mL; MBC [7, 21]: 25 µg/mL; MBC [7, 22]: 12.5 µg/mL
CC(=O)O.CCCCCCCCN(C)C1=NC(C)(C)NC(N(C)Cc2ccccc2)=N1 [Example 6, N^4-octyl-N^4-methyl-1,6-dihydro-6,6-dimethyl-N^2-benzyl-N^2-methyl-1,3,5-triazine-2,4-diamine acetate] |  |  |  | > 200 µg/mL | 25 µg/mL | 25 µg/mL | 25 µg/mL | 200 µg/mL | 
